According to paper PMC4562501 (Anesthesiology, 2014):
Where two headings read alike, the source gives them in different places.

How the values were obtained:
[1] = oral methadone; for Plasma Cmax/dose: control session, n=16, mean ± SD
clinical = conditions: both, human, in vivo, po, oral methadone; for Tmax: Plasma Tmax; for half-life: Plasma t½
healthy volunteers [2] = experiment: Miosis; assay type: in vivo, human
[3] = Intravenous methadone pharmacokinetics, protocol 2; assay type: in vivo; conditions: both, human, plasma
P-gp [4] = conditions: well-known P-gp substrate, for comparison; cited from earlier work
P-gp [5] = conditions: Caco-2 cells; cited from earlier work
healthy volunteers [6] = experiment: Thermal analgesia; assay type: in vivo, human; conditions: IV methadone
healthy volunteers [7] = experiment: Miosis; assay type: in vivo, human; conditions: IV methadone
healthy volunteers [8] = experiment: Thermal analgesia; conditions: oral methadone
[9] = racemic methadone; cited from earlier work
P-gp [10] = conditions: tariquidar 6 mg/kg, humans; cited from earlier work

## CC=C1N(C)C(C)CC1(c1ccccc1)c1ccccc1 (stereo not shown) [EDDP, 2-ethylidene-1,5-dimethyl-3,3-diphenylpyrrolidine]
[1]
  Increase of EDDP/methadone AUC ratio by cyclosporine: 11-15%

## CC=C1N(C)C(C)CC1(c1ccccc1)c1ccccc1 (stereo not shown) [R-EDDP, 2-ethylidene-1,5-dimethyl-3,3-diphenylpyrrolidine]
clinical; control
  Tmax: 2.5 ± 0.5 h
  half-life: 57 ± 22 h
clinical; cyclosporine-treated
  Tmax: 4.1 ± 1.1 h
  half-life: 73 ± 38 h
[1]; control
  Plasma AUC0-96/dose: 6.7 ± 1.6 ng·h/mL/mg
  Urine %dose eliminated (0-24 h): 4.2 ± 2.3 %dose
  Urine %dose eliminated (0-96 h): 9 ± 4 %dose
[1]
  Plasma Cmax/dose: 0.24 ± 0.09 ng/mL/mg
[1]; cyclosporine-treated
  Plasma AUC0-96/dose: 8.2 ± 1.9 ng·h/mL/mg
  Urine %dose eliminated (0-24 h): 4.2 ± 1.8 %dose
  Urine %dose eliminated (0-96 h): 10 ± 4 %dose

## CCC(=O)C(C[C@@H](C)N(C)C)(c1ccccc1)c1ccccc1 [R-Methadone, R-methadone]
Healthy volunteers [2]; plasma R-methadone
  Plasma concentration at which miosis was detectable (average): 5 ng/mL

## CC=C1N(C)C(C)CC1(c1ccccc1)c1ccccc1 (stereo not shown) [S-EDDP, 2-ethylidene-1,5-dimethyl-3,3-diphenylpyrrolidine]
[1]; control
  Plasma AUC0-96/dose: 11.6 ± 3.2 ng·h/mL/mg
  Plasma Tmax: 2.3 ± 0.7 h
  Plasma t½: 87 ± 25 h
  Urine %dose eliminated (0-24 h): 7.2 ± 3.8 %dose
  Urine %dose eliminated (0-96 h): 15 ± 6 %dose
[1]
  Plasma Cmax/dose: 0.35 ± 0.17 ng/mL/mg
[1]; cyclosporine-treated
  Plasma AUC0-96/dose: 14.4 ± 3.5 ng·h/mL/mg
  Plasma t½: 102 ± 39 h
  Urine %dose eliminated (0-24 h): 7.4 ± 3.7 %dose
  Urine %dose eliminated (0-96 h): 16 ± 8 %dose
[1]; geometric mean and 90% confidence interval
  Plasma AUC0-96 (EDDP/methadone) ratio (cyclosporine/control): 1.15 (1.04, 1.27)

## CCC(=O)C(C[C@H](C)N(C)C)(c1ccccc1)c1ccccc1 [S-Methadone, S-methadone]
[3]
  AUC(0-t): 282 ± 68 ng·h/mL
[3]; 0.1 mg/kg
  AUC(0-t): 276 ± 47 ng·h/mL
  Cmax: 32.2 ± 7.9 ng/mL
clinical; control
  Tmax: 2 ± 0.5 h
clinical; cyclosporine-treated
  Tmax: 4.6 ± 2.3 h

## CN(C)C(=O)C(CCN1CCC(O)(c2ccc(Cl)cc2)CC1)(c1ccccc1)c1ccccc1 [loperamide]
P-gp [4]
  Transport ratio: exceeds 10

## CCC(=O)C(CC(C)N(C)C)(c1ccccc1)c1ccccc1 (stereo not shown) [methadone]
P-gp [5]
  Reduction of rhodamine transport: 25%
Healthy volunteers [6]
  Analgesic effect (thermal): minimal analgesic effects
Healthy volunteers [2]; oral methadone
  Miotic response (average): 2 mm
Healthy volunteers [2]; oral methadone, controls
  Peak miosis (dose-adjusted): 1.4 ± 0.4 mm/mg
Healthy volunteers [2]; oral methadone, cyclosporine-treated subjects
  Peak miosis (dose-adjusted): 1.3 ± 0.5 mm/mg
Healthy volunteers [7]
  Miotic response (average): 2.5 mm
Healthy volunteers [7]; controls
  Peak miosis: 3.1 ± 1.0 mm
Healthy volunteers [7]; cyclosporine-treated subjects
  Peak miosis: 3.2 ± 0.8 mm
Healthy volunteers [8]
  Maximally tolerated temperature (method of limits): increased the maximally tolerated temperature
  Verbal analog ratings to discrete temperatures: small and brief analgesic effect
[9]
  Median minimal effective (postoperative) analgesia threshold: 31 ng/mL

## COc1cc2c(cc1OC)CN(CCc1ccc(NC(=O)c3cc(OC)c(OC)cc3NC(=O)c3cnc4ccccc4c3)cc1)CC2 [tariquidar]
P-gp [10]
  Increase in brain concentrations of (R)-[11C]verapamil: 2.5 fold
  Increase in brain concentrations of [11C]N-desmethyl-loperamide: 4 fold
